Measurements as given in patent EP4467141A1, “PYRAZOLO-QUINOLINES AS SELECTIVE INHIBITORS OF GENOTOXIC STRESS-INDUCED IKK/NF- KB PATHWAYS FOR CANCER THERAPY” (Max-Delbrück-Centrum für Molekulare Medizin in der …, priority 2023, dated 2024).

System: Akt phosphorylation (S473)
Assay: Western blot of Akt phosphorylation (S473) in U2-OS cells
Format: cell-based
Conditions: 1-hour pre-treatment
Experimental: Fig.2: MW01 and MW05 are potent and selective kinase inhibitors. […] Heatmap indicates lower IC50. […] (C) Western blot analysis of NF-κB p65 phosphorylation (S536) and Akt phosphorylation (S473) following 1-hour pre-treatment with DMSO, MW01 (10 µM), MW05 (10µM), PI-103 (1 µM), NU7441 (1 µM), or MU1210 (1 µM) in unstimulated, after 90 min irradiation (IR, 20 Gy), or after 20 min TNFα (10 ng/ml) conditions in U2-OS cells. (D) mRNA expression analysis of CLK2 (top), 48 hours after transfection with siNC, CLK2 si1, or CLK2 si2. mRNA expression analysis of NFKBIA (bottom), 48 hours after transfection with siNC, CLK2 si1, orCLK2 si2. Values are normalized to unstimulated siNC expressing cells. Statistical comparison was made between experimental conditions and respective paired siNC expressing controls. ns: not significant; **, ***, ****: p<0.01, p<0.001, p<0.000. (E) Western blot analysis of U2-OS cells after transfection with siNC or CLK2 si2 unstimulated, after irradiation (IR), or after TNFα treatment. Vinculin used as loading control. (F) IC50 (nM) of all CLK isoforms for MW01 and MW05. (G) Quantification from (E) with CLK2 knockdown and p-p65 quantification (top left and top right, respectively) and CLK4 knockdown and p-p65 (bottom left and bottom right, respectively. ns: not significant; **, ***, ****: p<0.01, p<0.001, p<0.0001.
Cells were collected by scraping and lysed in Baeuerle lysis buffer supplemented with Protease (Thermo Fisher Scientific, 78429) and Phosphatase (Thermo Fisher Scientific, 78420) inhibitors after the appropriate treatment and time point. Proteins were quantified by Bradford assay (Bio-Rad, 5000006) and 20-50 µg of extracted proteins were loaded on 4-20% Protein Gel (Bio-Rad, 4568096) and then transferred onto a PVDF membrane (Bio-Rad, 1620177) using Tris-Glycine buffer with 20% of methanol. Blocking was performed for 1h with 5% not-fat dry milk in PBS 1X. […] The membranes were analyzed by ECL (Thermo Fisher Scientific, 34580) and detected by ChemiDoc XRS+ (Bio-Rad) using ImageLab software (Bio-Rad). […]

Compound | reduction of p-Akt
COc1ccc2c(c1OC)c(=O)n1c3ccc(O)cc3c3ccnc2c31 [MW01, 5-Hydroxy-10,11-dimethoxy-9H-benzo[c]indolo[3,2,1-ij][1,5]naphthyridin-9-one] | complete reduction
COc1ccc2cc3c(N)nn(C(=O)c4cccc(N(C)C)c4)c3nc2c1 [MW05, (3-Amino-7-methoxypyrazolo[3,4-b]quinolin-1-yl)-[3-(dimethylamino)phenyl]methanone] | partial reduction
